Results reported in patent US6071913A, “Angiotensin II receptor antagonistic 1,2,4-triazin-5-one derivatives” (Development Center for Biotechnology, priority 1997, dated 2000).
Like-named read-outs stand apart in the source and are kept apart here.

Target: T1, Angiotensin II Type I Receptor (Homo sapiens, UniProt P30556)
T1 construct: purchased NEN Research Products NED-014
T1 sequence (P30556 1-359): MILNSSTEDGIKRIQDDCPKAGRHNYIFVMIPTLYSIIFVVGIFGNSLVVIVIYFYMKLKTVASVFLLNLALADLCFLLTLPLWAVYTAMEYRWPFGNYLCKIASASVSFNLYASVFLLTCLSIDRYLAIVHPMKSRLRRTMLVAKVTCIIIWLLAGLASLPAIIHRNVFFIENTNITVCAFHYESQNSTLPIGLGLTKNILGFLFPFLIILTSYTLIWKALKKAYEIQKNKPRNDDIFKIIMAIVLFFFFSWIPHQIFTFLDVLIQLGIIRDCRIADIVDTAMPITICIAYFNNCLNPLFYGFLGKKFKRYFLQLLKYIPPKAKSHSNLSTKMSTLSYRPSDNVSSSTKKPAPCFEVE
Assay: Binding affinity to Angiotensin II receptor ([125I]-Sar1,Ile8-Angiotensin II radioligand, Angiotensin II Type I Receptor Kit NED-014)
Protocol: The binding affinity of the compounds of the above Examples I to IX to angiotensin II receptor was tested. The procedures and results are as follows:
Assay for the Binding Affinity to Angiotensin II Receptor
The antagonistic activity of angiotensin II receptor was assayed by Angiotensin II Type I Receptor Kit (NED-014 NENQUEST Drug Discovery System, NEN Research Products, Massachusettes, USA). The kit comprises Angiotensin II Type I Receptor Concentrate, radioligand [^125 I]-Sar^1,Ile^8 -Angiotensin II Concentrate (5 Ci), Standard Concentrate (DuP 753, […]), Diluent Concentrate, and Filter-Soak Concentrate. In accordance with the manual of
NED-014 kit, the Radioligand Concentrate, Receptor Concentrate and Filter-Soak Concentrate were diluted with deionized water, and stored under suitable temperatures (-70° C. or ambient temperature).
1. Filter Device: Hoefer FH 224 V, Hoefer Scientific Instruments Inc., California, USA; Vacuum pressure=15 in. Hg.
2. γ-Counter: Beckman 5500, Beckman Instruments Inc., […]., USA.
The reagents were thawed on ice on the day of assays. Two sets of tubes, each with two tubes, were used, one for non-specific binding (NSB) and the other for total binding (TB). A series of standard solutions (with the final concentrations of 0.5, 1, 2, 5, 10, 20, 50 and 100 nM) were prepared. The tested compounds were dissolved and diluted to 500 nM for preliminary screening. […] To the NSB tubes were added 25 μL Standard Concentrate solutions, to the TB tubes were added 25 μL Diluent Concentration, and to other tubes were added 25 μL the solutions of tested compounds. Then, 25 μL radioligand were added to each tube (including the two tubes for total counts, TC). The two TC tubes were used later for the determination of the dosage of radioligand added to each tube. To the rest tubes, 200 μL Receptor Concentration solutions were added. The tubes were allowed to stand for 3 hours to reach equibilium completely. Filter papers (Sigma Catalog No. 1822024) were soaked in the Filter-Soak solution, and placed in the filter device. The contents in the tubes were poured onto the filter papers, and washed with saline twice. The slightly dry filter papers were placed into the γ-counter and counted with two minutes counter.
The data are expressed as counts per minute (CPM). Net CPM for Specific Binding of standards or tested compounds is defined as the CPM thereof minus that of NSP and calculated by equation 1:
CPMnet =CPMtested compounds or standard -CPMnon-specific
With the above equation, the Net CPM for Specific Binding of tested compounds and standards can be obtained.
Inhibition (% B/B0) is defined as the net CPM for Specific Binding over that of standard at 0 concentration and calculated by equation 2:
Inhibition (% B/B0) of tested compound=CPMnet of standard at 0
IC50 is defined as the concentration of compound corresponding 50% inhibition. IC50 of tested compounds can be obtained with EBDA software by calculating the inhibition (% B/B0) of the tested compounds at 7 different concentrations. In addition, as the binding activity of a series of compounds is correlated with receptors, IC50 of the tested compounds can also be obtained by equation 3 established from known IC50 and inhibition (% B/B0) of the series compounds: […]

[1] = marked * Calculated, read-out: IC50 (*Calculated)
[2] = concentration of compound corresponding to 50% inhibition, EBDA software, inhibition at 7 different concentrations, 3 hours incubation, read-out: IC50

| Compound | IC50 [1] | IC50 [2] |
| --- | --- | --- |
| CCCCc1nnc(C)c(=O)n1Cc1ccc(-c2ccccc2-c2nnn[nH]2)cc1 [L, 6-methyl-3-butyl-5-oxo-4-[[2'-(1H-tetrazol-5-yl)biphenyl-4yl]methyl]-1,2,4-triazine] | 310 nM | – |
| CCCCc1nc(=O)c(-c2ccccc2)nn1Cc1ccc(-c2ccccc2-c2nnn[nH]2)cc1 [N, 6-phenyl-3-butyl-5-oxo-2-[[2'-(1H-tetrazol-5-yl)biphenyl-4-yl]methyl]-1,2,4-triazine] | – | 336 nM |
| CCCCc1nnc(-c2ccccc2)c(=O)n1Cc1ccc(-c2ccccc2-c2nnn[nH]2)cc1 [O, 6-phenyl-3-butyl-5-oxo-4-[[2'-(1H-tetrazol-5-yl)biphenyl-4-yl]methyl]-1,2,4-triazine] | 62.6 nM | – |
| CCCCc1nc(=O)c(CCc2ccccc2)nn1Cc1ccc(-c2ccccc2-c2nnn[nH]2)cc1 [S, 6-(2'-phenylethyl)-3-butyl-5-oxo-2-[[2'-(1H-tetrazol-5-yl)biphenyl-4-yl]methyl]-1,2,4-triazine] | – | 67.5 nM |
| CCCCc1nnc(CCc2ccccc2)c(=O)n1Cc1ccc(-c2ccccc2-c2nnn[nH]2)cc1 [T, 6-(2'-phenylethyl)-3-butyl-5-oxo-4-[[2'-(1H-tetrazol-5-yl)biphenyl-4-yl]methyl]-1,2,4-triazine] | – | 55.1 nM |
| CCCCc1nc(Cl)c(CCc2ccccc2)c(=O)n1Cc1ccc(-c2ccccc2-c2nnn[nH]2)cc1 [V, 2-butyl-5-(2'-phenylethyl)-6-chloro-3-[[2'-(1H-tetrazol-5-yl)biphenyl-4-yl]methyl]-4(3H)-pyrimidinone] | 72 nM | – |
